{"source": "patent US9889115B2", "about": "“Fitness assay and associated methods” (priority 1998, dated 2018)", "key": {"wild-type HIV": {"system": "wild-type HIV", "assay": "wild-type antiretroviral activity (Table 4)", "settings": "Human immunodeficiency virus 1, read-out: ID50"}, "HIV-1 protease G48V/V82A": {"target": "T1, HIV-1 protease G48V/V82A (Human immunodeficiency virus type 1 group M subtype B, UniProt P04585, G536V/V570A)", "T1 construct": "proteases containing the deleterious drug resistance associated mutations V82F/I84V and G48V/V82A", "assay": "continuous fluorogenic HIV protease assay", "format": "biochemical", "description": "This example describes the protocol for the sensitive continuous fluorogenic assay for HIV protease of the present invention and its application. […] 21702-1201, upon written request. The inhibition constant for wild-type HIV-1, Kimnt/Kiwt ratio, and vitality were measured. (See Gulnik et al., Biochemistry, 34, 9282-9287 (1995). Protease activity was measured using the fluorgenic substrate Lys-Ala-Arg-Val-Tyr-Phe(NO2)-Glu-Ala-Nle-NH2 (Bachem Bioscience, Inc.). (See Peranteau et al., D.H. (1995) Anal. Biochem.).\nThe reaction was initiated by the addition of 5 μl of substrate stock solution in water. Increase in fluorescence intensity at the emission maximum of 306 nm (excitation wavelength was 277 nm) was monitored as a function of time using Aminco Bowman-2 luminescence spectrometer (SLM Instruments, Inc.). The initial rate of hydrolysis was calculated by second degree polynomial fit using SLM AB2 2.0 operating software.\nFor inhibition studies, inhibitors were prepared as stock solutions at different concentrations in dimethylsulfoxide. […] The reaction was initiated by the addition of 5 μl of substrate stock solution in water. For data analysis, the mathematical model for tight-binding inhibitors was used. (See Williams and Morrison (1979), In: Methods of Enzymol. 63, (ed. D. L. Purich), 437-467, Academic Press, NY, London). […]\nThis example describes the inhibitory activity of compounds 35 (FIG. 5A), 36 (FIG. 5B), 37 (FIG. 5C) and 38 (FIG. 5D). In accordance with the technique disclosed in Example 13 above, the inhibitory activity of these compounds was tested against proteases of the wild-type HIV-1. Compound 36, 37 and 38 were also tested against proteases containing the deleterious drug resistance associated mutations V82F/I84V and G48V/V82A. Fitness was determined in accordance with Example 13."}, "HIV-1 protease V82F/I84V [1]": {"target": "T2, HIV-1 protease V82F/I84V (Human immunodeficiency virus type 1 group M subtype B, UniProt P04585, I572V/V570F)", "T2 construct": "the proteases of wild-type HIV-1 (WT) and various mutant enzymes", "assay": "continuous fluorogenic HIV protease assay", "format": "biochemical", "settings": "V82F/I84V (Table 7)", "description": "(§1) This example describes the protocol for the sensitive continuous fluorogenic assay for HIV protease of the present invention and its application. […] The inhibition constant for wild-type HIV-1, Kimnt/Kiwt ratio, and vitality were measured.\n(§2) The reaction was initiated by the addition of 5 μl of substrate stock solution in water. […] The initial rate of hydrolysis was calculated by second degree polynomial fit using SLM AB2 2.0 operating software.\n(§3) For inhibition studies, inhibitors were prepared as stock solutions at different concentrations in dimethylsulfoxide. […] The reaction was initiated by the addition of 5 μl of substrate stock solution in water. For data analysis, the mathematical model for tight-binding inhibitors was used."}, "HIV-1 protease V82F/I84V [2]": {"target": "HIV-1 protease V82F/I84V", "assay": "continuous fluorogenic HIV protease assay", "format": "biochemical", "description": "as §1, §2, §3"}, "[3]": {"target": "T3, wild-type HIV-1 (WT) protease (Human immunodeficiency virus type 1 group M subtype B, UniProt P04585)", "T3 construct": "the proteases of wild-type HIV-1 (WT)", "assay": "continuous fluorogenic HIV protease assay", "format": "biochemical", "settings": "WT (Table 7)", "description": "as §1, §2, §3"}, "HIV-1LAI [4]": {"system": "HIV-1LAI", "assay": "PHA-PBMC assay, p24 Gag protein production", "format": "cell-based", "settings": "HIV-1LAI; PBMC/p24, day 7 (Table 8)"}, "HIV-1LAI [5]": {"system": "HIV-1LAI", "assay": "MT-2 cells, MTT assay", "format": "cell-based", "settings": "HIV-1LAI; MT-2/MTT, day 7", "description": "All drug sensitivities were performed in triplicate. […] The IC50's were determined using the MTT assay on day 7 of culture. All sensitivities were determined in […]."}, "HIV-1BAL": {"system": "HIV-1BAL", "assay": "PHA-PBMC assay, p24 Gag protein production", "format": "cell-based", "settings": "HIV-1Ba-L; PBMC/p24, day 7 (Table 8)"}}, "note": "pIC50, pKi: −log10 of the molar value.", "data": [{"smiles": "COc1ccc(S(=O)(=O)N(CC(C)C)CC(O)C(Cc2ccccc2)NC(=O)OC2COC3OCCC23)cc1", "note": "(stereo not drawn)", "values": [{"measurement": "pIC50", "setting": "wild-type HIV", "value": 8.85}]}, {"smiles": "CC(C)CN(C[C@@H](O)[C@H](Cc1ccccc1)NC(=O)O[C@H]1CO[C@H]2OCC[C@H]21)S(=O)(=O)c1ccc(CO)cc1", "note": "[Compound 37]", "values": [{"measurement": "KI-wt/KI-mut", "setting": "HIV-1 protease G48V/V82A; G48V/V82A", "value": 5.3}, {"measurement": "pKi", "setting": "HIV-1 protease G48V/V82A; G48V/V82A", "value": 10.19}, {"measurement": "Fitness", "setting": "HIV-1 protease G48V/V82A; G48V/V82A relative to WT", "value": 1.4}, {"measurement": "pKi", "setting": "HIV-1 protease V82F/I84V [1]", "value": 10.59}, {"measurement": "KI-wt/KI-mut", "setting": "HIV-1 protease V82F/I84V [2]; V82F/I84V (Table 7)", "value": 2.1}, {"measurement": "Fitness", "setting": "HIV-1 protease V82F/I84V [2]; V82F/I84V relative to WT (Table 7)", "value": 0.3}, {"measurement": "KI-wt/KI-mut", "setting": "[3]", "value": 1}, {"measurement": "pKi", "setting": "[3]", "value": 10.92}, {"measurement": "pIC50", "setting": "HIV-1LAI [4]", "value": 8.57}, {"measurement": "pIC50", "setting": "HIV-1LAI [5]", "value": 8.28}, {"measurement": "pIC50", "setting": "HIV-1BAL", "value": 8.52}]}]}
